What was measured:
MCF7 = experiment: Antiproliferative activity against human MCF7 cells assessed as reduction in cell viability measured after 48 hrs by SRB assay; type: functional, cell-based; settings: MCF7, 48 h
CAKI-1 = experiment: Antiproliferative activity against human CAKI-1 cells assessed as reduction in cell viability after 48 hrs by SRB assay; type: functional, cell-based; settings: CAKI-1, 48 h
OVCAR-3 = experiment: Antiproliferative activity against human OVCAR-3 cells assessed as reduction in cell viability; type: functional, cell-based
DU-145 = experiment: Antiproliferative activity against human DU-145 cells assessed as reduction in cell viability; type: functional, cell-based
K562 = experiment: Antiproliferative activity against human K562 cells assessed as reduction in cell viability by MTT assay; type: functional, cell-based
HL-60 [1] = experiment: Antiproliferative activity against human HL-60 cells assessed as reduction in cell viability incubated for 48 hrs by MTT assay; type: functional, cell-based; settings: HL-60, 48 h
T47D = experiment: Antiproliferative activity against human T47D cells assessed as inhibition of cell growth; type: functional, cell-based
M14 = experiment: Antiproliferative activity against human M14 cells assessed as growth inhibition incubated for 72 hrs by luminescence assay; type: functional, cell-based; settings: M14, 72 h
A498 = experiment: Antiproliferative activity against human A498 cells assessed as reduction in cell viability; type: functional, cell-based
LOX IMVI = experiment: Antiproliferative activity against human LOX IMVI cells assessed as cell growth inhibition; type: functional, cell-based
SK-OV-3 = experiment: Antiproliferative activity against human SK-OV-3 cells assessed as reduction in cell viability incubated for 48 hrs by MTT assay; type: functional, cell-based; settings: SK-OV-3, 48 h
PC-3 = experiment: Antiproliferative activity against human PC-3 cells assessed as cell growth inhibition; type: functional, cell-based
KB = experiment: Antiproliferative activity against human KB cells assessed as reduction in cell viability incubated for 48 hrs by MTT assay; type: functional, cell-based
SK-MEL [2] = experiment: Antiproliferative activity against human SK-MEL cells assessed as reduction in cell growth inhibition; type: functional, cell-based
BeWo = experiment: Antiproliferative activity against human BeWo cells assessed as reduction in cell viability after 72 hrs by MTT assay; type: functional, cell-based
[3] = Cytotoxicity against pig LLC-PK1 cells; type: toxicity, cell-based, Sus scrofa; settings: read-out: TC50 (the source's name)
BT-549 [4] = experiment: Antiproliferative activity against human BT-549 cells assessed as reduction in cell viability incubated for 48 hrs by MTT assay; type: functional, cell-based; settings: BT-549, 48 h
[5] = Antiproliferative activity against human YD-10B cells assessed as cell growth inhibition measured after 72 hrs by MTT assay; type: functional, cell-based
HT-29 = experiment: cells; settings: Homo sapiens, HT-29, 72 h
P388 = experiment: Antiproliferative activity against mouse P388 cells assessed as cell growth inhibition incubated for 72 hrs by MTT assay; type: functional, cell-based; settings: P388, 72 h
EL4 = experiment: Antiproliferative activity against mouse EL4 cells assessed as cell growth inhibition incubated for 72 hrs by MTT assay; type: functional, cell-based; settings: EL4, 72 h
Plasmodium falciparum [6] = experiment: microbe, parasite or virus in culture; settings: W2
Description: Antiplasmodial activity against Plasmodium falciparum W2 assessed as inhibition of cell growth

Plasmodium falciparum [7] = experiment: microbe, parasite or virus in culture; settings: Dd2
Description: Antiplasmodial activity against Plasmodium falciparum Dd2 assessed as inhibition of parasitic growth

[8] = Cytotoxicity against African green monkey Vero cells; type: toxicity, cell-based; settings: chlorocebus sabaeus, read-out: TC50 (the source's name)
[9] = Cytotoxicity against CHO cells assessed as reduction in cell viability; type: toxicity, cell-based, Cricetulus griseus; settings: chinese hamster, read-out: TC50 (the source's name)
Plasmodium falciparum [10] = experiment: Antimalarial activity against Plasmodium falciparum D10 assessed as inhibition of parasitic growth; type: functional, organism-based
Plasmodium falciparum [11] = experiment: Antimalarial activity against Plasmodium falciparum 3D7 assessed as inhibition of malarial growth; type: functional, organism-based
Plasmodium falciparum [12] = experiment: microbe, parasite or virus in culture; settings: D6
Description: Antiplasmodial activity against Plasmodium falciparum D6 assessed as inhibition of parasitic growth

Plasmodium falciparum [13] = experiment: microbe, parasite or virus in culture; settings: K1
Description: Antiplasmodial activity against Plasmodium falciparum K1 assessed as inhibition of parasitic growth

Plasmodium berghei = experiment: In vivo antimalarial activity against Plasmodium berghei infected mouse model assessed as survival time at 8 mg/kg, po in presence of Mefloquine hydrochloride
HCT-15 = experiment: cells; settings: Homo sapiens, HCT-15, 48 h
Description: Antiproliferative activity against human HCT-15 cells assessed as reduction in cell viability incubated for 48 hrs by MTT assay

Jurkat = experiment: Antiproliferative activity against human Jurkat cells assessed as reduction in cell viability incubated for 48 hrs by MTT assay; type: functional, cell-based
SK-VLB = experiment: Antiproliferative activity against human SK-VLB cells assessed as reduction in cell viability incubated for 48 hrs by MTT assay; type: functional, cell-based
XF498 = experiment: Antiproliferative activity against human XF498 cells assessed as reduction in cell viability incubated for 48 hrs by MTT assay; type: functional, cell-based; settings: XF498, 48 h
A549 = experiment: cells; settings: Homo sapiens, A549, 48 h
SK-MEL-2 = experiment: Antiproliferative activity against human SK-MEL-2 cells assessed as reduction in cell viability incubated for 48 hrs by MTT assay; type: functional, cell-based; settings: SK-MEL-2, 48 h
ADR5000 cell line = experiment: Antiproliferative activity against human CEM/ADR5000 cells assessed as reduction in cell viability incubated for 48 hrs by MTT assay; type: functional, cell-based; settings: ADR5000, 48 h
SK-MEL [14] = experiment: Antiproliferative activity against human SK-MEL cells assessed as reduction in cell viability incubated for 48 hrs by MTT assay; type: functional, cell-based
Plasmodium falciparum [15] = experiment: Antimalarial activity against Plasmodium falciparum K1 assessed as inhibition of malarial growth; type: functional, organism-based
Plasmodium falciparum [16] = experiment: Antimalarial activity against Plasmodium falciparum NF54 assessed as reduction in cell growth; type: functional, organism-based
BT-549 [17] = experiment: Antiproliferative activity against human BT-549 cells assessed as cell growth inhibition measured after 72 hrs by SRB assay; type: functional, cell-based; settings: BT-549, 72 h
HL-60 [18] = experiment: Antiproliferative activity against human HL-60 cells assessed as cell growth inhibition measured after 48 hrs by SRB assay; type: functional, cell-based; settings: HL-60, 48 h
Plasmodium falciparum [19] = experiment: Antimalarial activity against Plasmodium falciparum W2 assessed as reduction in malarial growth; type: functional, organism-based
CAKI-2 = experiment: Antiproliferative activity against human CAKI-2 cells assessed as inhibition of cell growth; type: functional, cell-based
TK-10 = experiment: Antiproliferative activity against human TK-10 cells assessed as reduction in cell viability incubated for 48 hrs by SRB assay; type: functional, cell-based; settings: TK-10, 48 h
UACC-62 = experiment: Antiproliferative activity against human UACC-62 cells assessed as reduction in cell viability incubated for 48 hrs by SRB assay; type: functional, cell-based; settings: UACC-62, 48 h

SMILES: C[C@@H]1CC[C@H]2[C@@H](C)C(OCC(COC3O[C@H]4O[C@@]5(C)CC[C@H]6[C@H](C)CC[C@@H]([C@H]3C)[C@@]46OO5)OC(=O)CCC(=O)O)O[C@H]3O[C@@]4(C)CC[C@@H]1[C@]32OO4 (some centres undefined)
- IC50 (MCF7): 200 nM
- IC50 (CAKI-1): 30000 nM
- IC50 (OVCAR-3): 250 nM
- IC50 (DU-145): 20000 nM
- IC50 (K562): 200 nM
- IC50 (HL-60 [1]): 60 nM
- IC50 (T47D): 75 nM
- IC50 (M14): 30000 nM
- IC50 (A498): 20000 nM
- IC50 (LOX IMVI): 80 nM
- IC50 (SK-OV-3): 25000 nM
- IC50 (PC-3): 40 nM

SMILES: CC(=O)O[C@H]1C(=O)[C@@]2(C)[C@H]([C@H](OC(=O)c3ccccc3)[C@]3(O)C[C@H](OC(=O)[C@H](O)[C@@H](NC(=O)c4ccccc4)c4ccccc4)C(C)=C1C3(C)C)[C@]1(OC(C)=O)CO[C@@H]1C[C@@H]2O [PACLITAXEL]
- IC50 (KB): 0.1 nM
- IC50 (MCF7): 0.1 nM
- IC50 (SK-MEL [2]): 0.1 nM
- IC50 (BeWo): 0.1 nM
- CC50 [3]: 4390 nM
- IC50 (BT-549 [4]): 0.1 nM
- IC50 [5]: 0.1 nM
- IC50 (HT-29): 0.1 nM
- IC50 (P388): 0.1 nM
- IC50 (EL4): 0.1 nM
- IC50 (SK-OV-3): 0.1 nM

SMILES: C[C@H]1[C@@H](O)O[C@H]2O[C@@]3(C)CC[C@H]4[C@H](C)CC[C@@H]1[C@@]24OO3
- IC50 (Plasmodium falciparum [6]): 2.09 nM
- IC50 (Plasmodium falciparum [7]): 2.09 nM
- CC50 [8]: 1410 nM
- CC50 [9]: 148000 nM
- IC50 (Plasmodium falciparum [10]): 2.09 nM
- IC50 (Plasmodium falciparum [11]): 2.09 nM
- IC50 (Plasmodium falciparum [12]): 2.09 nM
- IC50 (Plasmodium falciparum [13]): 2.09 nM

SMILES: C[C@@H]1CC[C@H]2[C@@H](C)C(CC(CC3O[C@@H]4O[C@]5(C)CC[C@@H]6[C@@H](C)CC[C@H]([C@@H]3C)[C@]46OO5)C[Si](C)(C)C)O[C@H]3O[C@@]4(C)CC[C@@H]1[C@]32OO4 (some centres undefined)
- survival time (Plasmodium berghei): > 57 days

SMILES: COc1cccc2c1C(=O)c1c(O)c3c(c(O)c1C2=O)C[C@@](O)(C(=O)CO)C[C@@H]3O[C@H]1C[C@H](N)[C@H](O)[C@H](C)O1 [DOXORUBICIN]
- IC50 (HCT-15): 9 nM
- IC50 (Jurkat): 9 nM
- IC50 (KB): 9 nM
- IC50 (SK-MEL [2]): 170 nM
- IC50 (SK-VLB): 9 nM
- IC50 (XF498): 9 nM
- IC50 (A549): 9 nM
- CC50 [3]: 1290 nM
- IC50 (BT-549 [4]): 9 nM
- IC50 (SK-MEL-2): 9 nM
- IC50 (HL-60 [1]): 9 nM
- IC50 (ADR5000 cell line): 9 nM
- IC50 (SK-MEL [14]): 9 nM
- IC50 (SK-OV-3): 9 nM

SMILES: C[C@@H]1CC[C@H]2[C@@H](C)C(=O)O[C@@H]3O[C@@]4(C)CC[C@@H]1[C@]32OO4 [ARTEMISININ]
- IC50 (Plasmodium falciparum [15]): 7.81 nM
- IC50 (Plasmodium falciparum [7]): 6.9 nM
- IC50 (Plasmodium falciparum [16]): 6.9 nM
- IC50 (BT-549 [17]): 40000 nM
- IC50 (HL-60 [18]): 40000 nM
- CC50 [8]: > 1690 nM
- IC50 (Plasmodium falciparum [19]): 6.6 nM
- IC50 (CAKI-2): 40000 nM

SMILES: COc1cc([C@@H]2c3cc4c(cc3[C@@H](O[C@@H]3O[C@@H]5CO[C@@H](C)O[C@H]5[C@H](O)[C@H]3O)[C@H]3COC(=O)[C@H]23)OCO4)cc(OC)c1O [ETOPOSIDE]
- IC50 (MCF7): 830 nM
- IC50 (TK-10): 830 nM
- IC50 (UACC-62): 830 nM

SMILES: C[C@@H]1CC[C@H]2[C@@H](C)C(OCC(COC3O[C@H]4O[C@@]5(C)CC[C@H]6[C@H](C)CC[C@@H]([C@H]3C)[C@@]46OO5)=NO)O[C@H]3O[C@@]4(C)CC[C@@H]1[C@]32OO4 (some centres undefined)
- IC50 (MCF7): 60 nM
- IC50 (CAKI-1): 13000 nM
- IC50 (OVCAR-3): 200 nM
- IC50 (DU-145): 15000 nM
- IC50 (K562): 150 nM
- IC50 (HL-60 [1]): 40 nM
- IC50 (T47D): 30 nM
- IC50 (M14): 15000 nM
- IC50 (A498): 6500 nM
- IC50 (LOX IMVI): 55 nM
- IC50 (SK-OV-3): 15000 nM
- IC50 (PC-3): 20 nM
